From patent US7300946B2, “N-(substituted arylmethyl)-4-(disubstituted methyl) piperidines and pyridines” (Bayer CropScience AG, priority 2002, dated 2007)

test system: tobacco budworm (Heliothis virescens [Fabricius]); assay: surface-treated diet test against the tobacco budworm; format: in vivo; settings: tobacco budworm second instar larvae; 0.25 millimoles of candidate insecticide on the surface of the diet; five-day exposure; compared to total number of insects infested
Experimental: Candidate insecticides were evaluated for activity against the tobacco budworm (Heliothis virescens [Fabricius]) in a surface-treated diet test.
In this test one mL of molten (65–70° C.) wheat germ-based artificial diet was pipetted into each well of a four by six (24 well) multi-well plate (ID# 430345-15.5 mm dia.×17.6 mm deep; Corning Costar Corp., One Alewife Center, Cambridge, Mass. 02140). The diet was allowed to cool to ambient temperature before treatment with candidate insecticide.
For a determination of insecticidal activity, solutions of the candidate insecticides were prepared for testing using a Packard 204DT Multiprobe® Robotic System (Packard Instrument Company, 800 Research Parkway, Meriden, Conn. 06450), in which the robot first diluted a standard 50 millimolar DMSO solution of candidate insecticide with a 1:1 water/acetone solution (V/V) in a ratio of 1:7 stock solution to water/acetone. The robot subsequently pipetted 40 microliters of the so-prepared solution onto the surface of the diet in each of three wells in the 24 multi-well plate. The process was repeated with solutions of seven other candidate insecticides. Once treated, the contents of the multi-well plate were allowed to dry, leaving 0.25 millimoles of candidate insecticide on the surface of the diet, or a concentration of 0.25 millimolar. Appropriate untreated controls containing only DMSO on the diet surface were also included in this test. […]
In each well of the test plate was placed one second instar tobacco budworm larvea, each weighing approximately five milligrams. After the larvae were placed in each well, the plate was sealed with clear polyfilm adhesive tape. The tape over each well was perforated to ensure an adequate air supply. The plates were then held in a growth chamber at 25° C. and 60% relative humidity for five days (light 14 hours/day).
After the five-day exposure period insecticidal activity for each rate of application of candidate insecticide was assessed as percent inhibition of insect weight relative to the weight of insects from untreated controls, and percent mortality when compared to the total number of insects infested.
The test compounds of formula I are identified by numbers that correspond to those in Table 1.
These tests were conducted with 0.25 millimoles of candidate insecticide on the surface of the diet.

| SMILES | Percent Mortality |
| --- | --- |
| O=C(Nc1ccc(F)cc1F)OC(c1ccc(C(F)(F)F)cc1)C1CC[N+]([O-])(Cc2ccc(Oc3ncccn3)cc2)CC1 (stereo not drawn) [Compound 763] | 100% |
| Fc1cc(C(=C2CCN(Cc3ccc(Oc4ncccn4)cc3)CC2)c2ccc(C(F)(F)F)cc2)ccc1Cl [Compound 821] | 100% |
| O=C(Nc1cc(F)cc(F)c1)OC(c1ccc(C(F)(F)F)cc1)C1CCN(Cc2ccc(Oc3ccc(Cl)nn3)cc2)CC1 (stereo not drawn) [Compound 738] | 100% |
| N#Cc1ccc(NC(=O)OC(c2ccc(C(F)(F)F)cc2)C2CCN(Cc3ccc(Oc4ccccn4)cc3)CC2)cc1 (stereo not drawn) [Compound 704] | 100% |
| O=C(Nc1ccc(F)cc1F)OC(c1ccc(C(F)(F)F)cc1)C1CC[N+]([O-])(Cc2ccc(Oc3ccccn3)cc2)CC1 (stereo not drawn) [Compound 753] | 100% |
| O=C(Nc1cc(F)cc(F)c1)OC(c1ccc(C(F)(F)F)cc1)C1CC[N+]([O-])(Cc2ccc(Oc3ccccc3)cc2)CC1 (stereo not drawn) [Compound 749] | 100% |
| CC(C)OC(=O)Nc1ccc(C[N+]2([O-])CCC(C(OC(=O)Nc3cc(F)cc(F)c3)c3ccc(C(F)(F)F)cc3)CC2)cc1 (stereo not drawn) [Compound 746] | 100% |
| O=C(Nc1cc(F)cc(F)c1)OC(c1ccc(C(F)(F)F)cc1)C1CC[N+]([O-])(Cc2ccc(Oc3c(F)cccc3F)cc2)CC1 (stereo not drawn) [Compound 751] | 100% |
| [O-][N+]1(Cc2ccc(Oc3ncccn3)cc2)CCC(=C(c2ccc(C(F)(F)F)cc2)c2cc(Cl)cc(Cl)c2)CC1 (stereo not drawn) [Compound 856] | 50% |
| FC(F)(F)c1ccc(C(=C2CCN(Cc3ccc(Oc4ncccn4)cc3)CC2)c2ccc(Cl)cc2)cc1 [Compound 816] | 100% |

same assay, conditions: tobacco budworm second instar larvae; 0.25 millimoles of candidate insecticide on the surface of the diet; five-day exposure; inhibition of insect weight relative to untreated controls

| SMILES | Percent Growth Inhibition |
| --- | --- |
| O=C(Nc1ccc(F)cc1F)OC(c1ccc(C(F)(F)F)cc1)C1CC[N+]([O-])(Cc2ccc(Oc3ncccn3)cc2)CC1 (stereo not drawn) [Compound 763] | 100% |
| Fc1cc(C(=C2CCN(Cc3ccc(Oc4ncccn4)cc3)CC2)c2ccc(C(F)(F)F)cc2)ccc1Cl [Compound 821] | 100% |
| O=C(Nc1cc(F)cc(F)c1)OC(c1ccc(C(F)(F)F)cc1)C1CCN(Cc2ccc(Oc3ccc(Cl)nn3)cc2)CC1 (stereo not drawn) [Compound 738] | 100% |
| N#Cc1ccc(NC(=O)OC(c2ccc(C(F)(F)F)cc2)C2CCN(Cc3ccc(Oc4ccccn4)cc3)CC2)cc1 (stereo not drawn) [Compound 704] | 100% |
| O=C(Nc1ccc(F)cc1F)OC(c1ccc(C(F)(F)F)cc1)C1CC[N+]([O-])(Cc2ccc(Oc3ccccn3)cc2)CC1 (stereo not drawn) [Compound 753] | 100% |
| O=C(Nc1cc(F)cc(F)c1)OC(c1ccc(C(F)(F)F)cc1)C1CC[N+]([O-])(Cc2ccc(Oc3ccccc3)cc2)CC1 (stereo not drawn) [Compound 749] | 100% |
| CC(C)OC(=O)Nc1ccc(C[N+]2([O-])CCC(C(OC(=O)Nc3cc(F)cc(F)c3)c3ccc(C(F)(F)F)cc3)CC2)cc1 (stereo not drawn) [Compound 746] | 100% |
| O=C(Nc1cc(F)cc(F)c1)OC(c1ccc(C(F)(F)F)cc1)C1CC[N+]([O-])(Cc2ccc(Oc3c(F)cccc3F)cc2)CC1 (stereo not drawn) [Compound 751] | 100% |
| [O-][N+]1(Cc2ccc(Oc3ncccn3)cc2)CCC(=C(c2ccc(C(F)(F)F)cc2)c2cc(Cl)cc(Cl)c2)CC1 (stereo not drawn) [Compound 856] | 100% |
| FC(F)(F)c1ccc(C(=C2CCN(Cc3ccc(Oc4ncccn4)cc3)CC2)c2ccc(Cl)cc2)cc1 [Compound 816] | 100% |

same assay, conditions: tobacco budworm second instar larvae; surface-treated diet; 0.25 millimoles of candidate insecticide on the surface of the diet; five-day exposure; compared to total number of insects infested

| SMILES | Percent Mortality |
| --- | --- |
| CCON=Cc1ccc(CN2CCC(C(OC(=O)Nc3cccc(F)c3)c3ccc(Cl)cc3)CC2)cc1 (stereo not drawn) [Compound 524] | 100% |
| O=C(Nc1cccc(C(F)(F)F)c1)OC(c1ccc(F)cc1)C1CCN(Cc2ccc(Oc3ccccn3)cc2)CC1 (stereo not drawn) [Compound 642] | 100% |
| CCCOc1ccc(CN2CCC(C(OC(=O)Nc3cc(F)cc(F)c3)c3ccc(C(F)(F)F)cc3)CC2)cc1 (stereo not drawn) [Compound 491] | 100% |
| O=C(Nc1ccc(Cl)c(C(F)(F)F)c1)OC(c1ccc(C(F)(F)F)cc1)C1CCN(Cc2ccc(Oc3ccccn3)cc2)CC1 (stereo not drawn) [Compound 247] | 100% |
| CCn1nnc(-c2ccc(CN3CCC(C(OC(=O)Nc4ccc(F)c(F)c4)c4ccc(OC)cc4)CC3)cc2)n1 (stereo not drawn) [Compound 603] | 100% |
| O=C(Nc1ccc(Cl)cc1)OC(c1ccc(Cl)cc1)C1CCN(Cc2ccc(Oc3ccccn3)cc2)CC1 (stereo not drawn) [Compound 629] | 100% |
| CCn1nnc(-c2ccc(CN3CCC(C(OC(=O)Nc4ccc(Cl)cc4)c4ccc(OC(F)(F)F)cc4)CC3)cc2)n1 (stereo not drawn) [Compound 267] | 100% |
| CCCOc1ccc(CN2CCC(C(OC(=O)Nc3ccc(Cl)cc3)c3ccc(Cl)cc3)CC2)cc1 (stereo not drawn) [Compound 470] | 100% |
| COc1ccc(CN2CCC(C(OC(=O)Nc3ccc(F)cc3)c3ccc(OC(F)(F)F)cc3)CC2)cc1 (stereo not drawn) [Compound 468] | 33% |
| CCCOc1ccc(CN2CCC(=C(c3ccc(OC(F)(F)F)cc3)c3ccc(OC(F)(F)F)cc3)CC2)cc1 [Compound 48] | 100% |
| O=C(Nc1ccc(F)cc1)OC(c1cccc(C(F)(F)F)c1)C1CCN(Cc2ccc(Oc3ccccn3)cc2)CC1 (stereo not drawn) [Compound 653] | 100% |

same assay, conditions: tobacco budworm second instar larvae; surface-treated diet; 0.25 millimoles of candidate insecticide on the surface of the diet; five-day exposure; inhibition of insect weight relative to untreated controls

| SMILES | Percent Growth Inhibition |
| --- | --- |
| CCON=Cc1ccc(CN2CCC(C(OC(=O)Nc3cccc(F)c3)c3ccc(Cl)cc3)CC2)cc1 (stereo not drawn) [Compound 524] | 100% |
| O=C(Nc1cccc(C(F)(F)F)c1)OC(c1ccc(F)cc1)C1CCN(Cc2ccc(Oc3ccccn3)cc2)CC1 (stereo not drawn) [Compound 642] | 100% |
| CCCOc1ccc(CN2CCC(C(OC(=O)Nc3cc(F)cc(F)c3)c3ccc(C(F)(F)F)cc3)CC2)cc1 (stereo not drawn) [Compound 491] | 100% |
| O=C(Nc1ccc(Cl)c(C(F)(F)F)c1)OC(c1ccc(C(F)(F)F)cc1)C1CCN(Cc2ccc(Oc3ccccn3)cc2)CC1 (stereo not drawn) [Compound 247] | 100% |
| CCn1nnc(-c2ccc(CN3CCC(C(OC(=O)Nc4ccc(F)c(F)c4)c4ccc(OC)cc4)CC3)cc2)n1 (stereo not drawn) [Compound 603] | 100% |
| O=C(Nc1ccc(Cl)cc1)OC(c1ccc(Cl)cc1)C1CCN(Cc2ccc(Oc3ccccn3)cc2)CC1 (stereo not drawn) [Compound 629] | 100% |
| CCn1nnc(-c2ccc(CN3CCC(C(OC(=O)Nc4ccc(Cl)cc4)c4ccc(OC(F)(F)F)cc4)CC3)cc2)n1 (stereo not drawn) [Compound 267] | 100% |
| CCCOc1ccc(CN2CCC(C(OC(=O)Nc3ccc(Cl)cc3)c3ccc(Cl)cc3)CC2)cc1 (stereo not drawn) [Compound 470] | 100% |
| COc1ccc(CN2CCC(C(OC(=O)Nc3ccc(F)cc3)c3ccc(OC(F)(F)F)cc3)CC2)cc1 (stereo not drawn) [Compound 468] | 100% |
| CCCOc1ccc(CN2CCC(=C(c3ccc(OC(F)(F)F)cc3)c3ccc(OC(F)(F)F)cc3)CC2)cc1 [Compound 48] | 100% |
| O=C(Nc1ccc(F)cc1)OC(c1cccc(C(F)(F)F)c1)C1CCN(Cc2ccc(Oc3ccccn3)cc2)CC1 (stereo not drawn) [Compound 653] | 100% |
